Measurements from ChEMBL document CHEMBL3763116, “Synthesis and evaluation of colletoic acid core derivatives” (Eur J Med Chem, 2016).

How the values were obtained:
[1] = molecular target: 11-beta-hydroxysteroid dehydrogenase 1 (Homo sapiens, UniProt P28845); assay: Inhibition of 11beta-HSD1 (unknown origin) using cortisol as substrate assessed as NADPH formation by fluorescent plate reader analysis
[2] = system: BJ; assay: Cytotoxicity against human BJ cells after 72 hrs by Cell TitreGlo assay; format: cell-based
[3] = molecular target: T1, 11-beta-hydroxysteroid dehydrogenase type 2 (Homo sapiens, UniProt P80365); assay: Inhibition of full length human 11beta-HSD2 expressed in HEK293 cells using […] as substrate incubated for 2 hrs by HTRF assay in presence of NAD+; format: cell-based
T1 sequence (P80365 whole entry): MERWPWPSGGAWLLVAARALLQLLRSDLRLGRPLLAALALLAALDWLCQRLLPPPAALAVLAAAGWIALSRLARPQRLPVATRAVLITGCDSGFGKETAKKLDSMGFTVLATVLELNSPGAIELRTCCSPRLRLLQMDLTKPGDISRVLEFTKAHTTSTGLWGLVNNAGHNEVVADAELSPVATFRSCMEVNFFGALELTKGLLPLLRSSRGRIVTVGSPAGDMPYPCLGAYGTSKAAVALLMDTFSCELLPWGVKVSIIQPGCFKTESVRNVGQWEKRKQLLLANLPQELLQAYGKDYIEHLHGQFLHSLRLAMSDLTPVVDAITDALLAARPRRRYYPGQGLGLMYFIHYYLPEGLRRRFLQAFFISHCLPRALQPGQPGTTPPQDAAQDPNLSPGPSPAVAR

11-beta-hydroxysteroid dehydrogenase 1, sequence (P28845 whole entry): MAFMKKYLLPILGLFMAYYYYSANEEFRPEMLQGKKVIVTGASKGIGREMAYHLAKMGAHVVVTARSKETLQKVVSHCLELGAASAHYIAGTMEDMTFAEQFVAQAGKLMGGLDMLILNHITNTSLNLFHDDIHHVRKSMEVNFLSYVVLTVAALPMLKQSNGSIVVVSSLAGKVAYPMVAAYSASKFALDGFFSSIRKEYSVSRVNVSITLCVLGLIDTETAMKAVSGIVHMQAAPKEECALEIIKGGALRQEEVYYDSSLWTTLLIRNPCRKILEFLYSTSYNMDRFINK

Structure (SMILES)	IC50 [1] [µM]	EC50 [2] [µM]	IC50 [3] [µM]
CCn1c2ccccc2c2nnc(SC[C@H]3CC=C(C(C)C)[C@]34C=CC(=O)CC4)nc21	33	> 90	> 1000
CC(C)[C@@H]1CC[C@H](CO)[C@]12CC[C@@](C)(O)[C@@H](O)C2	> 1000	> 90	–
C=C1C(=O)C[C@]2(C[C@@H]1OC(C)=O)[C@@H](C(=O)OCC)CC[C@H]2C(C)C	> 1000	> 90	–
COc1ccc(S(=O)(=O)NCc2cn(C[C@H]3CC=C(C(C)C)[C@]34C=CC(=O)CC4)nn2)cc1	> 1000	> 90	> 1000
CC(C)[C@@H]1CC[C@H](CO)[C@]12CC[C@](C)(O)[C@H]1O[C@H]12	> 1000	> 90	–
CC1=CC[C@@]2(c3ccccc3C[C@@H]2C(=O)O)[C@H](O)[C@@H]1O	> 1000	> 90	–
CC(C)C1=CC[C@H](CO)[C@@]12C=CC(=O)CC2	> 1000	> 90	–
CC(C)C1=CC(=O)[C@H](CO[Si](C)(C)C(C)(C)C)[C@@]12C=C[C@](C)(O)CC2	> 1000	> 90	–
CCCCCCSc1nnc(SC[C@H]2CC=C(C(C)C)[C@]23C=CC(=O)CC3)s1	> 1000	> 90	> 1000
CC1=CC[C@@]2(CC1)C(C(C)C)=CC[C@@H]2CO	> 1000	> 90	–
CC1=CC(=O)[C@@]2(CC1)C(C(C)C)=CC[C@@H]2CO[Si](C)(C)C(C)(C)C	> 1000	> 90	–
CC(C)[C@@H]1CC[C@@H]2CO[C@@H]3C[C@](C)(O)CC[C@]231	> 1000	> 90	–
CC(C)C1=CC[C@H](C(=O)NC(C)C23CC4CC(CC(C4)C2)C3)[C@@]12C=CC(=O)CC2 (some centres undefined)	85	> 90	> 1000
CC(C)C1=CC[C@H](C(N)=O)[C@@]12C=CC(=O)CC2	> 1000	> 90	–
CCOC(=O)[C@H]1CC[C@@H](C(C)C)[C@]12CCC(=O)[C@@H](OC(C)=O)C2	> 1000	> 90	–
CC(C)C1=CC[C@H](C(=O)NCc2cc(F)cc(F)c2)[C@@]12C=CC(=O)CC2	> 1000	> 90	> 1000

Structure (SMILES)	IC50 [1] [µM]	EC50 [2] [µM]	IC50 [3] [µM]
O=C1CC[C@@]2(c3ccccc3C[C@@H]2CO)[C@@H]2O[C@H]12	> 1000	> 90	–
CC(C)C1=CC[C@H](C(=O)NCC2CCC3CC2C3(C)C)[C@@]12C=CC(=O)CC2 (some centres undefined)	94	> 90	> 1000
CC(C)C1=CC[C@H](CO)[C@]12CCC(=O)[C@H]1O[C@H]12	> 1000	> 90	–
O=C1C=C[C@@]2(CC1)c1ccccc1C[C@@H]2CO	> 1000	> 90	–
CCOC(=O)[C@H]1CC=C(C(C)C)[C@]12C=CC(=O)[C@@H](OC(C)=O)C2	> 1000	> 90	–
CCCCCCSc1nnc(S(=O)(=O)C[C@H]2CC=C(C(C)C)[C@]23C=CC(=O)CC3)s1	121	> 90	> 1000
CC(C)C1=CC[C@H](CO)[C@]12CC[C@@](C)(O)C[C@H]2O	> 1000	> 90	–
CC(C)C1=CC[C@H](C(=O)NCCc2cccs2)[C@@]12C=CC(=O)CC2	> 1000	> 90	> 1000
CC(C)C1=CC[C@H](CSc2nc3ccccc3o2)[C@@]12C=CC(=O)CC2	> 1000	> 90	> 1000
CC(C)C1=CC[C@H](CO)[C@@]12C=C[C@](C)(O)CC2	> 1000	> 90	–
CC(C)C1=CC[C@H](CN2C(=O)c3ccccc3C2=O)[C@@]12C=CC(=O)CC2	> 1000	> 90	> 1000
C[C@H]1CC[C@@]2(c3ccccc3C[C@@H]2C(=O)O)[C@H](O)[C@@H]1O	> 1000	> 90	–
C=C1C=C[C@]2(CC1)[C@@H](C(=O)OCC)CC[C@H]2C(C)C	> 1000	> 90	–
CC(C)C1=CC[C@H](CO[Si](C)(C)C(C)(C)C)[C@]12CC[C@@]1(O[Si](C)(C)C(C)(C)C)O[C@H]1C2	> 1000	> 90	–
CC(C)C1=CC[C@H](CO)[C@]12CC[C@](C)(O)[C@@H](O)C2	> 1000	> 90	–
CCOC(=O)[C@H]1CC[C@@H](C(C)C)[C@]12C=CC(O)[C@@H](OC(C)=O)C2 (single isomer, unassigned)	> 1000	> 90	–
